From patent US20220346372A1, “Compositions For Preparing Microemulsion, Microemulsion, Method For Producing Composition And Microemulsion, And Use Of Mircoemulsion” (Moresco Corporation, priority 2019, published 2022)

Assay: LogP, flask shaking method (OECD guideline, n-octanol/water)
Assay type: physicochemical
Settings: 1-octanol-water partition coefficient; for logP: read-out: LogP of the poorly water-soluble functional component
Source text: Here, LogP is a common logarithmic value of a 1-octanol-water or 1-octanol-buffer partition coefficient of a chemical substance. In the present specification, LogP is a value measured by a flask shaking method based on OECD GUIDELINE FOR THE TESTING OF CHEMICALS, “Partition Coefficient (n-octanol/water): Shake Flask Method”. A chemical substance having a higher LogP has a higher degree of lipophilicity. In other words, a chemical substance having a higher LogP has a higher degree of fat-solubility.

Compound | LogP of the poorly water-soluble functional component | logP
Cc1c(C)c2c(c(C)c1O)CCC(C)(CCCC(C)CCCC(C)CCCC(C)C)O2 (racemic) [tocopherol, DL-α-Tocopherol] | 8.84 | –
CC1CCC(C(C)C)C(O)C1 (single isomer, unassigned; (-)) [menthol, (−)-Menthol] | – | 2.68
COC1=C(OC)C(=O)C(C/C=C(\C)CC/C=C(\C)CC/C=C(\C)CC/C=C(\C)CC/C=C(\C)CC/C=C(\C)CC/C=C(\C)CC/C=C(\C)CC/C=C(\C)CCC=C(C)C)=C(C)C1=O [CoQ10, coenzyme Q10] | – | 11
Clc1ccc(C(c2ccc(Cl)cc2)C(Cl)(Cl)Cl)cc1 [DDT, dichlorodiphenyltrichloroethane] | – | 6.5
COc1cc(/C=C/C(=O)CC(=O)/C=C/c2ccc(O)c(OC)c2)ccc1O [curcumin, Curcumin] | – | 3.62
COc1ccc2c(c1)c(CC(=O)O)c(C)n2C(=O)c1ccc(Cl)cc1 [indomethacin, Indomethacin] | 4.25 | 4.25
CC(=O)O[C@H]1C(=O)[C@@]2(C)[C@H]([C@H](OC(=O)c3ccccc3)[C@]3(O)C[C@H](OC(=O)[C@H](O)[C@@H](NC(=O)c4ccccc4)c4ccccc4)C(C)=C1C3(C)C)[C@]1(OC(C)=O)CO[C@@H]1C[C@@H]2O [paclitaxel, Paclitaxel] | – | 3.2
C[C@]12CC[C@H]3[C@@H](CCC4=CC(=O)CC[C@@]43C)[C@@H]1CC[C@@H]2O [testosterone, Testosterone] | – | 2.99
Tocotrienol | 7.68 | –
